# Experimental data: ChEMBL document CHEMBL3885861, “Open TG-GATES”
# Species on record: Rattus norvegicus
# Assay: Open TG-GATES - Regimen: Single
# Type: toxicity, organism-based, Sprague-Dawley
# Set-up: regimen Single, gender Male, age 6 weeks
# Conditions: in vivo, po, 20 mg/kg, route gavage, dose level Middle; for APTT / Bas / Eos / Fbg / Hb / Ht / Lym / MCH / MCHC / MCV / Mono / Neu / PT / Plat / RBC / Ret / WBC: tissue Blood; for LIVER: tissue Liver; for A/G / ALP / ALT / AST / BUN / CRE / Ca / Cl / DBIL / GLC / IP / K / LDH / Na / PL / RALB / TBIL / TC / TG / TP / gamma-GTP: tissue Plasma
compound,measurement,setting,value
"O=[N+]([O-])c1ccc(O)c([N+](=O)[O-])c1 [2,4-DINITROPHENOL]",TERMINAL_BW,3 h,203.6 g
same,APTT,3 h,16.6 s
same,Bas,3 h,0%
same,Eos,3 h,1%
same,Fbg,3 h,246.4 mg/dL
same,Hb,3 h,12.6 g/dL
same,Ht,3 h,37.5%
same,Lym,3 h,75%
same,MCH,3 h,22 pg
same,MCHC,3 h,33.5%
same,MCV,3 h,65.6 fL
same,Mono,3 h,11.8%
same,Neu,3 h,12.4%
same,PT,3 h,11.8 s
same,Plat,3 h,115.4 x10_4/uL
same,RBC,3 h,572.2 x10_4/ul
same,Ret,3 h,10.2%
same,WBC,3 h,93.4 x10_2/uL
same,LIVER,3 h,9.5 g
same,A/G,3 h,2.3
same,ALP,3 h,1342.4 IU/L
same,ALT,3 h,37.8 IU/L
same,AST,3 h,62.6 IU/L
same,BUN,3 h,12.8 mg/dL
same,CRE,3 h,0.4 mg/dL
same,Ca,3 h,11.9 mg/dL
same,Cl,3 h,104 meq/L
same,DBIL,3 h,0.012 mg/dL
same,GLC,3 h,218.2 mg/dL
same,IP,3 h,10.9 mg/dL
same,K,3 h,4.2 meq/L
same,LDH,3 h,125.2 IU/L
same,Na,3 h,138.4 meq/L
same,PL,3 h,143 mg/dL
same,RALB,3 h,3.8 g/dL
same,TBIL,3 h,0.036 mg/dL
same,TC,3 h,85.4 mg/dL
same,TG,3 h,68.6 mg/dL
same,TP,3 h,5.5 g/dL
same,gamma-GTP,3 h,0 IU/L
same,TERMINAL_BW,6 h,200.1 g
same,APTT,6 h,16 s
same,Bas,6 h,0%
same,Eos,6 h,1.2%
same,Fbg,6 h,235 mg/dL
same,Hb,6 h,13.1 g/dL
same,Ht,6 h,39.1%
same,Lym,6 h,71.4%
same,MCH,6 h,22 pg
same,MCHC,6 h,33.6%
same,MCV,6 h,65.5 fL
same,Mono,6 h,10.2%
same,Neu,6 h,17.2%
same,PT,6 h,12 s
same,Plat,6 h,124 x10_4/uL
same,RBC,6 h,596.4 x10_4/ul
same,Ret,6 h,8.9%
same,WBC,6 h,111 x10_2/uL
same,LIVER,6 h,8.2 g
same,A/G,6 h,2.6
same,ALP,6 h,1422.2 IU/L
same,ALT,6 h,36.4 IU/L
same,AST,6 h,78.6 IU/L
same,BUN,6 h,12.2 mg/dL
same,CRE,6 h,0.4 mg/dL
same,Ca,6 h,11 mg/dL
same,Cl,6 h,105.8 meq/L
same,DBIL,6 h,0.02 mg/dL
same,GLC,6 h,204.6 mg/dL
same,IP,6 h,10.9 mg/dL
same,K,6 h,4.5 meq/L
same,LDH,6 h,129.2 IU/L
same,Na,6 h,139.2 meq/L
same,PL,6 h,141.2 mg/dL
same,RALB,6 h,3.9 g/dL
same,TBIL,6 h,0.044 mg/dL
same,TC,6 h,85.6 mg/dL
same,TG,6 h,46.4 mg/dL
same,TP,6 h,5.4 g/dL
same,gamma-GTP,6 h,0 IU/L
same,TERMINAL_BW,9 h,203.1 g
same,APTT,9 h,16.2 s
same,Bas,9 h,0%
same,Eos,9 h,0.8%
same,Fbg,9 h,255.5 mg/dL
same,Hb,9 h,12.9 g/dL
same,Ht,9 h,38.4%
same,Lym,9 h,77.2%
same,MCH,9 h,22.1 pg
same,MCHC,9 h,33.8%
same,MCV,9 h,65.4 fL
same,Mono,9 h,4.8%
same,Neu,9 h,17.2%
same,PT,9 h,12 s
same,Plat,9 h,132.8 x10_4/uL
same,RBC,9 h,587.2 x10_4/ul
same,Ret,9 h,10.4%
same,WBC,9 h,104.5 x10_2/uL
same,LIVER,9 h,8.5 g
same,A/G,9 h,2.4
same,ALP,9 h,1370.8 IU/L
same,ALT,9 h,34 IU/L
same,AST,9 h,64.5 IU/L
same,BUN,9 h,10.5 mg/dL
same,CRE,9 h,0.4 mg/dL
same,Ca,9 h,11.3 mg/dL
same,Cl,9 h,104.5 meq/L
same,DBIL,9 h,0.02 mg/dL
same,GLC,9 h,198.5 mg/dL
same,IP,9 h,11.2 mg/dL
same,K,9 h,4.7 meq/L
same,LDH,9 h,158 IU/L
same,Na,9 h,139 meq/L
same,PL,9 h,153.8 mg/dL
same,RALB,9 h,3.9 g/dL
same,TBIL,9 h,0.045 mg/dL
same,TC,9 h,83.5 mg/dL
same,TG,9 h,70.2 mg/dL
same,TP,9 h,5.6 g/dL
same,gamma-GTP,9 h,0 IU/L
same,TERMINAL_BW,24 h,216.8 g
same,APTT,24 h,15.6 s
same,Bas,24 h,0%
same,Eos,24 h,1.2%
same,Fbg,24 h,234.2 mg/dL
same,Hb,24 h,12.9 g/dL
same,Ht,24 h,38.4%
same,Lym,24 h,70.4%
same,MCH,24 h,21.6 pg
same,MCHC,24 h,33.7%
same,MCV,24 h,64.2 fL
same,Mono,24 h,11.6%
same,Neu,24 h,16.8%
same,PT,24 h,11.7 s
same,Plat,24 h,125.6 x10_4/uL
same,RBC,24 h,597.8 x10_4/ul
same,Ret,24 h,9%
same,WBC,24 h,122.2 x10_2/uL
same,LIVER,24 h,11.1 g
same,A/G,24 h,2.4
same,ALP,24 h,1483.4 IU/L
same,ALT,24 h,43.2 IU/L
same,AST,24 h,67.2 IU/L
same,BUN,24 h,16 mg/dL
same,CRE,24 h,0.4 mg/dL
same,Ca,24 h,11.3 mg/dL
same,Cl,24 h,103.2 meq/L
same,DBIL,24 h,0.01 mg/dL
same,GLC,24 h,182.2 mg/dL
same,IP,24 h,7.2 mg/dL
same,K,24 h,4.6 meq/L
same,LDH,24 h,101.4 IU/L
same,Na,24 h,139 meq/L
same,PL,24 h,163.8 mg/dL
same,RALB,24 h,3.9 g/dL
same,TBIL,24 h,0.032 mg/dL
same,TC,24 h,90 mg/dL
same,TG,24 h,131.8 mg/dL
same,TP,24 h,5.5 g/dL
same,gamma-GTP,24 h,0.8 IU/L
